Experimental data taken from patent US20130095059A1, “INHALED NO DONOR KMUPS DERIVATIVE PREVENTING ALLERGIC PULMONARY VASCULAR AND BRONCHIAL INFLAMMATION VIA SUPPRESSED CYTOKINES, INOS AND INFLAMMATORY CELL COUNTS IN ASTHMA MODEL” (priority 2007, published 2013).

Key:
5-HT2C receptor = biological target: T1, 5-HT2C receptor (Homo sapiens, UniProt P28335); test: Displacement of radioligand binding, 5-HT2C; conditions: [^3H]-mesulergine, human recombinant CHO-K1 cells
T1 construct: full length clones of 5-HT2A, 5-HT2B and 5-HT2C receptor were prepared from CHO-K1 cells; expressed in transfected cells; host or cells: CHO-K1
T1 sequence (P28335 33-458): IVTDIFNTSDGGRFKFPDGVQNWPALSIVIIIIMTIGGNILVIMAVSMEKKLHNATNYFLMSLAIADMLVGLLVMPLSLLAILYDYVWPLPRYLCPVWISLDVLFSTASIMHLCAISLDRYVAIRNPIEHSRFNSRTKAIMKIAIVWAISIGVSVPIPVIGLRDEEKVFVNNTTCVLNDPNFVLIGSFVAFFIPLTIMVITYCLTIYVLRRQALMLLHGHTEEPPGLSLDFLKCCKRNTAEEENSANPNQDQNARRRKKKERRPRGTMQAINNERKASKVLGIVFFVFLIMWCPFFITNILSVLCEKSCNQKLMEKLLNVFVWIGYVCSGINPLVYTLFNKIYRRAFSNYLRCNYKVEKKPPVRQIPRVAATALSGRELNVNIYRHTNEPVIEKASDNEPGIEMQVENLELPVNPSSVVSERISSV
Method: (§1) Displacement of Radioligand Binding Assay
(§2) As described previously, full length clones of 5-HT2A, 5-HT2B and 5-HT2C receptor were prepared from CHO-K1 cells. […] IC50 represents the concentration of competing ligand which displaces 50% of the specific binding of the radioligand. Ki values for competition curves were calculated using the Cheng-Prusoff equation (Cheng, 2001).

5-HTT = test: 5-HT-induced 5-HTT expression in PASMCs (Western blotting); format: cell-based, Wistar rats
Method: (§3) PASMCs were stimulated with 5-HT or not, as indicated. Cells were treated with KMUP-1 for 24 h before 5-HT stimulation. Whole lysates were collected and resolved by SDS-PAGE as previously described. Primary antibodies were anti-β-actin at: 1:10,000 dilution and anti-RhoA, anti-ROCK, antiphospho-ERK1/2, anti-phospho-AKT, anti-ERK1/2, anti-AKT, anti-5HTT, anti-5-HT2B and anti-eNOS at 1:1000. All blots were incubated with antibodies at 4° C. overnight. After being washed, the appropriate secondary antibodies were added at a dilution of 1:1000 for 1 h at room temperature. After extensive washing, blots were developed with a Super Signal enhanced chemiluminescence kit (Biorad, CA, USA) and visualized on Kodak AR film.
(§4) The expression of RhoA/ROCK and phosphorylation of ERK1/2 and AKT kinase in PASMCs were assessed by incubating the PASMCs with 5-HT (10 μM) for 15 min (peak time for RhoA/ROCK, ERK1/2 and AKT phosphorylation) and 5-HTT for 10 min (peak time for 5-HTT) after KMUP-1 (1-100 μM) was added to the culture of PASMCs for 24 h.

5-HT2A receptor = biological target: T2, 5-HT2A receptor (Homo sapiens, UniProt P28223); test: Displacement of radioligand binding, 5-HT2A; conditions: [^3H]-ketanserin, human recombinant CHO-K1 cells
T2 construct: full length clones of 5-HT2A, 5-HT2B and 5-HT2C receptor were prepared from CHO-K1 cells; expressed in transfected cells; host or cells: CHO-K1
T2 sequence (P28223 whole entry): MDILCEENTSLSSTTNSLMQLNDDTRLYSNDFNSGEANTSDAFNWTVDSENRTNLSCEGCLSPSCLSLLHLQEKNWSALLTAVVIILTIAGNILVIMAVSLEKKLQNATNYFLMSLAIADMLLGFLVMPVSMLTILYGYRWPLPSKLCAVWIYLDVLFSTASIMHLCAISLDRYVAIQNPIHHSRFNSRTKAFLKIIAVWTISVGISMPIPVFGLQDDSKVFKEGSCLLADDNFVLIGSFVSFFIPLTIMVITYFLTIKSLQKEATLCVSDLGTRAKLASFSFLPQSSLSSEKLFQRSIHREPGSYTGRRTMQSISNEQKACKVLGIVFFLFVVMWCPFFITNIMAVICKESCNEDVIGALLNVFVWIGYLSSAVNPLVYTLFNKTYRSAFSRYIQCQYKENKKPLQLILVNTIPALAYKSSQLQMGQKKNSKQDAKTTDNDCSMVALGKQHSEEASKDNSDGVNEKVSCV
Method: as §1, §2

pulmonary artery rings = test: Isometric force of 5-HT-constricted pulmonary artery rings; parameters: species or system Wistar rats
Method: Wistar rats were euthanized with an overdose of sodium pentobarbital (60 mg/kg, i.p.) before open-chest surgery. During surgery, a thoracic retractor was used to help isolate the pulmonary artery. […] The pulmonary artery ring preparations were stretched to a basal tension of 1 g and allowed to equilibrate for 60-90 min. After equilibration, pulmonary artery rings were constricted with 5-HT (10 μM) to prime the tissues and check the functionality of the endothelium (at least 80% relaxation in response to acetylcholine 1 μM). […] The effect of KMUP-1 on NOS and 5-HT was also studied in vessels pre-incubated with the NOS inhibitor L-NAME (100 μM) 20 min before 5-HT administration. The percentage of relaxation was estimated using the following equation: relaxation (%)=(maximal contraction−relaxation level)/(maximal contraction-basal level)×100. Data was obtained from serotonin-induced maximal contractile responses in pulmonary artery.

ROCK = test: 5-HT-induced ROCK expression in PASMCs; format: cell-based, Wistar rats; conditions: 1-100 μM, 24 h
Method: as §3, §4

eNOS = test: Short term nebulization, eNOS expression in lung tissues; format: in vivo, BALB/c mice; conditions: nebulization 1.0˜2.5 mM, 30 mins, without ovalbumine sensitization
Method: […] Aerosols were generated by ultrasonic nebulizer from day 21 to 27. Mice were sacrificed on day 28, (Cataldo D D, et al., 2002). Three different experiments were performed on cohorts of 7˜14 mice per experimental condition.
The lung tissues were homogenized, washed with PBS and incubated in lysis buffer in addition to a protease inhibitor cocktail (Sigma, St. Louis, Mo.) to obtain extracts of lung proteins. A Western blot analysis was performed as described previously (Wu B N, et al., 2006). The samples were loaded to 10% SDS-PAGE gels and were separated at 120 V for 90 min. The blots were incubated with anti-eNOS antibody diluted at a ratio of 1:500, anti-sGCα1 antibody diluted at a ratio of 1:2000, anti-PKG antibody diluted at a ratio of 1:500, anti-VCAM-1 antibody diluted at a ratio of 1:500, anti-ICAM-1 antibody diluted at a ratio of 1:500, and anti-MMP-9 antibody diluted at a ratio of 1:600 overnight at 4° C. The membranes were stripped and re-blotted with anti-actin antibody (Sigma, St. Louis, Mo.) to verify the equal loading of protein in each lane.

NO = test: Nitric oxide production in HPAEC (Griess); format: cell-based, human; conditions: 10 μM, 24 h before adding 5-HT
Method: Production of NO in HPAEC was determined using the Griess method. The three step Greiss test converts nitrate (NO3^−) into nitrite (NO2^−) giving a total NO2^− concentration from a standard calibration curve. HPAEC were incubated with or without KMUP-1 (10 μM) for 24 h and then incubated with 5-HT (10 μmol/L) for 30 min. Media samples from HPAEC were taken and the NO concentration was determined. Six independent experiments were carried out and data are reported as the mean mean±SEM.

## Cn1c(=O)c2c(ncn2CCN2CCN(c3ccccc3Cl)CC2)n(C)c1=O [KMUP-1, 7-[2-[4-(2-chlorophenyl)piperazinyl]ethyl]-1,3-dimethylxanthine]
5-HT2C receptor
  IC50: 408 nM
5-HT2C receptor; Cheng-Prusoff
  Ki: 214 nM
5-HTT; 10 μM
  5-HT-induced expression of 5-HTT: inhibited
5-HTT; 1-100 μM, 24 h, then 5-HT 10 min
  5-HT-induced expression of 5-HTT: dose-dependently inhibited
5-HT2A receptor
  IC50: 340 nM
5-HT2A receptor; Cheng-Prusoff
  Ki: 97.1 nM
Pulmonary artery rings; 0.1-100 μM
  5-HT (10 μM) contractile response in pulmonary artery: inhibited
Pulmonary artery rings; 10-100 μM, in the presence of L-NAME (100 μM)
  maximum response of pulmonary artery to 5-HT: reduced the maximum response
ROCK
  5-HT-induced ROCK: significantly inhibited
eNOS
  eNOS expression in mice lung tissues: dose-dependently increased
NO
  release of NO compared to 5-HT treatment alone: raised
